pKi: −log10 of the molar value.
Legend:
KPC-2 = KPC-2 (Klebsiella pneumoniae, UniProt Q9F663); experiment: Ki, nitrocefin cleavage by purified enzyme, KPC-2; assay type: biochemical; conditions: nitrocefin reporter substrate; read-out: Ki (KPC-2, NCF)
Outline: (§1)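 10 min RT preincubation, enzyme with inhibitor series in reaction buffer. Substrate nitrocefin; kinetic read 490 nm, 10 sec intervals, 10 min total.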

KP1004 (KPC-2) [1] = experiment: Aztreonam potentiation (MPC@4), KP1004; assay type: cell-based; conditions: BLI with aztreonam at 4 μg/mL
ec302 (TEM-10) [2] = experiment: Aztreonam potentiation (MPC@4), ec302; assay type: cell-based; conditions: BLI with aztreonam at 4 μg/mL
ECL1002 [3] = experiment: Tigemonam potentiation (MPC@4), ECL1002; assay type: cell-based; conditions: BLI with tigemonam at 4 μg/mL
KP1086 (OXA-48) = experiment: Biapenem potentiation (MPC@1), KP1086; conditions: BLI with biapenem at 1 μg/mL
ec302 (TEM-10) [4] = experiment: Tigemonam potentiation (MPC@4), ec302; assay type: cell-based
P99 = P99 (Enterobacter cloacae, UniProt P05364); experiment: Ki, nitrocefin cleavage by purified enzyme, P99; assay type: biochemical; conditions: nitrocefin reporter substrate; read-out: Ki (P99, NCF)
P99, sequence (P05364 21-381): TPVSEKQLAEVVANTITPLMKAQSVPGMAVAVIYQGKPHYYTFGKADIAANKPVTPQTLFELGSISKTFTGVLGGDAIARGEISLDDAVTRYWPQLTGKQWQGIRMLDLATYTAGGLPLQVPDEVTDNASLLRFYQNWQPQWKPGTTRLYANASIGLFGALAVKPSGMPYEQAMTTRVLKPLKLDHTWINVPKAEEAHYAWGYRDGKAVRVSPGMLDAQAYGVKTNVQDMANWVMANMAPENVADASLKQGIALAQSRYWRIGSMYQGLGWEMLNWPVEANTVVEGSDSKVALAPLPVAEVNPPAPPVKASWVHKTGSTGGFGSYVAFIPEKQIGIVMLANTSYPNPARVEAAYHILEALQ
Outline: as §1

EC1010 (CMY-6) [5] = experiment: organism not typed; assay type: cell-based
KP1004 (KPC-2) [6] = experiment: Biapenem potentiation (MPC@1), KP1004; conditions: BLI with biapenem at 1 μg/mL
ECL1002 [7] = experiment: Aztreonam potentiation (MPC@4), ECL1002; assay type: cell-based; conditions: BLI with aztreonam at 4 μg/mL
SHV-12 = SHV-12 (Klebsiella pneumoniae, UniProt P0AD64, E235K/G234S/L31Q); experiment: Ki, nitrocefin cleavage by purified enzyme, SHV-12; assay type: biochemical; conditions: nitrocefin reporter substrate; read-out: Ki (SHV-12, NCF)
SHV-12, sequence (P0AD64 22-286 L31Q/G234S/E235K): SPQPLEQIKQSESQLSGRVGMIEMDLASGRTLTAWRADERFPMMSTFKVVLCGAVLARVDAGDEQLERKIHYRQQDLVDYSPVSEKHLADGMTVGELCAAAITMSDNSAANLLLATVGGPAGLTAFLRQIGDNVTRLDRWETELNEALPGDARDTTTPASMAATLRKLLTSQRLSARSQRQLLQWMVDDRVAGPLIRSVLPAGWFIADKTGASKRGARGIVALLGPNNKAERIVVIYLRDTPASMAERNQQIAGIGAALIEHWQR
Outline: as §1

EC1010 (CMY-6) [8] = experiment: Tigemonam potentiation (MPC@4), EC1010; assay type: cell-based; conditions: BLI with tigemonam at 4 μg/mL
KP1010 (SHV-12) = experiment: Tigemonam potentiation (MPC@4), KP1010; assay type: cell-based
KP1009 (CTX-M-15) [9] = experiment: Tigemonam potentiation (MPC@4), KP1009; assay type: cell-based; conditions: BLI with tigemonam at 4 μg/mL
CTX-M-14 = CTX-M-14 (Escherichia coli, UniProt Q9L5C7); experiment: Ki, nitrocefin cleavage by purified enzyme, CTX-M-14; assay type: biochemical; conditions: nitrocefin reporter substrate; read-out: Ki (CTX-M-14, NCF)
CTX-M-14, sequence (Q9L5C7 29-291): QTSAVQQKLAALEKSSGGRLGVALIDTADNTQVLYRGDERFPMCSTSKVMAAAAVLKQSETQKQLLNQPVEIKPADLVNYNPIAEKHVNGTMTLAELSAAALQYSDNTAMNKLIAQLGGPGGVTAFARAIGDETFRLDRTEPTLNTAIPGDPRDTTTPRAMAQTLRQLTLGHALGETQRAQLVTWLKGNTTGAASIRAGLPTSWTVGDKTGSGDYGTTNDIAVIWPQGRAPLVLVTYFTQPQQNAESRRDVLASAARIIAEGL
Outline: as §1

Pa AmpC = Pa AmpC (Pseudomonas aeruginosa, UniProt P24735); experiment: Ki, nitrocefin cleavage by purified enzyme, Pa AmpC; assay type: biochemical; conditions: nitrocefin reporter substrate; read-out: Ki (Pa AmpC, NCF)
Pa AmpC, sequence (P24735 27-397): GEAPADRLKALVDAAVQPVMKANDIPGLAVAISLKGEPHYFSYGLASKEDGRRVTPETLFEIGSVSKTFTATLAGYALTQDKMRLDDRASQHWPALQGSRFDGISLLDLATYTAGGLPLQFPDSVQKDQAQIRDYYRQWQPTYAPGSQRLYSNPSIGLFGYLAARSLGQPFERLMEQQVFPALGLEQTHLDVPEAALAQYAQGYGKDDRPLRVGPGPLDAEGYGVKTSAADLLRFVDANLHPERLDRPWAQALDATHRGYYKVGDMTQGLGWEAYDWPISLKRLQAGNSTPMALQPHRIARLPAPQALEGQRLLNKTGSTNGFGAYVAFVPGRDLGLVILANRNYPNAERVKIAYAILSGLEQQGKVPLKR
Outline: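 Ki values were determined with nitrocefin as the reporter substrate. Purified enzymes were incubated with several inhibitor concentrations for 10 min at room temperature before substrate addition, and cleavage was monitored at 490 nm for 10 min.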

OXA-48 = OXA-48 (Klebsiella pneumoniae, UniProt Q6XEC0); experiment: Ki, nitrocefin cleavage by purified enzyme, OXA-48; assay type: biochemical; conditions: nitrocefin reporter substrate; read-out: Ki (OXA-48, NCF)
OXA-48, sequence (Q6XEC0 23-265, looked up, species assumed): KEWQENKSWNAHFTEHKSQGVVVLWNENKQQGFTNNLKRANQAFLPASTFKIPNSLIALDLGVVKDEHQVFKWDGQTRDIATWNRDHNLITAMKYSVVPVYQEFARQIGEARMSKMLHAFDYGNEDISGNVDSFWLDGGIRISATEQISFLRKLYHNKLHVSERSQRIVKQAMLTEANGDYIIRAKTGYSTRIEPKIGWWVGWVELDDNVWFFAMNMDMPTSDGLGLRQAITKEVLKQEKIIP
Outline: as §1

ec308 (SHV-5) = experiment: Tigemonam potentiation (MPC@4), ec308; assay type: cell-based
KP1009 (CTX-M-15) [10] = experiment: organism not typed; assay type: cell-based
KP1005 (CTX-M-14) [11] = experiment: Tigemonam potentiation (MPC@4), KP1005; assay type: cell-based; conditions: BLI with tigemonam at 4 μg/mL
KP1005 (CTX-M-14) [12] = experiment: Aztreonam potentiation (MPC@4), KP1005; assay type: cell-based; conditions: BLI with aztreonam at 4 μg/mL

KPC-2, sequence (Q9F663 25-293, looked up, species assumed): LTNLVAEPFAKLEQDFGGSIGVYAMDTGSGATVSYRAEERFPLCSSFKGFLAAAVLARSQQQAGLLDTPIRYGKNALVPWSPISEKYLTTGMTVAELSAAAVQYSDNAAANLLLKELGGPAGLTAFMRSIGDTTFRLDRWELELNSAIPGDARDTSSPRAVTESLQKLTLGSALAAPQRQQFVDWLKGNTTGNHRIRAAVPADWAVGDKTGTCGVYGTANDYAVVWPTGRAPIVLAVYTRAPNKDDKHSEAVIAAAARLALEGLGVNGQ

Compound	pKi (KPC-2)	AZT MPC4 KPC-2 KP1004 (KP1004 (KPC-2) [1])	AZT MPC4 TEM-10 ec302 (ec302 (TEM-10) [2])	TIG MPC4 ECL1002 (ECL1002 [3])	BPM MPC1 OXA-48 KP1086 (KP1086 (OXA-48))	TIG MPC4 TEM-10 ec302 (ec302 (TEM-10) [4])	pKi (P99)	AZT MPC4 CMY-6 EC1010 (EC1010 (CMY-6) [5])	BPM MPC1 KP1004 KPC-2 (KP1004 (KPC-2) [6])	AZT MPC4 ECL1002 (ECL1002 [7])	pKi (SHV-12)	TIG MPC4 CMY-6 EC1010 (EC1010 (CMY-6) [8])	TIG MPC4 SHV-12 KP1010 (KP1010 (SHV-12))	TIG MPC4 CTX-M-15 KP1009 (KP1009 (CTX-M-15) [9])	pKi (CTX-M-14)	pKi (Pa AmpC)	pKi (OXA-48)	TIG MPC4 SHV-5 ec308 (ec308 (SHV-5))	AZT MPC4 CTX-M-15 KP1009 (KP1009 (CTX-M-15) [10])	TIG MPC4 CTX-M-14 KP1005 (KP1005 (CTX-M-14) [11])	other results
CSCC(=O)N[C@H]1Cc2ccc(OCC(=O)O)c(C(=O)O)c2OB1O [Compound 33, (R)-7-(carboxymethoxy)-2-hydroxy-3-(2-(methylthio)acetamido)-3,4-dihydro-2H-benzo[e][1,2]oxaborinine-8-carboxylic acid]	< 8.00	Y (MIC of 1 μg/mL to 10 μg/mL)	Y (MIC of 1 μg/mL to 10 μg/mL)	Y (MIC of 1 μg/mL to 10 μg/mL)	Z (MIC of greater than 10 μg/mL)	Z (key: X: MIC of less than 1 ng/mL; Y: MIC of 1 μg/mL to 10 μg/mL; Z: MIC of greater than 10 μg/mL)	< 8.00	Y (key: X: MIC of less than 1 ng/mL; Y: MIC of 1 μg/mL to 10 μg/mL; Z: MIC of greater than 10 μg/mL)	X (MIC of less than 1 μg/mL)	Y (MIC of 1 μg/mL to 10 μg/mL)	> 9.00	Y (MIC of 1 μg/mL to 10 μg/mL)	X (key: X: MIC of less than 1 μg/mL; Y: MIC of 1 μg/mL to 10 μg/mL; Z: MIC of greater than 10 μg/mL)	Y (MIC of 1 μg/mL to 10 μg/mL)	> 9.00	< 8.00	> 9.00	Y (key: X: MIC of less than 1 ng/mL; Y: MIC of 1 μg/mL to 10 μg/mL; Z: MIC of greater than 10 μg/mL)	Y (key: X: MIC of less than 1 ng/mL; Y: MIC of 1 μg/mL to 10 μg/mL; Z: MIC of greater than 10 μg/mL)	Y (MIC of 1 μg/mL to 10 μg/mL)	AZT MPC4 CTX-M-14 KP1005 (KP1005 (CTX-M-14) [12]): Y (MIC of 1 μg/mL to 10 μg/mL)
CSCC(=O)N[C@H]1Cc2ccc(Sc3nncn3C)c(C(=O)O)c2OB1O [Compound 35, (R)-2-hydroxy-7-(4-methyl-4H-1,2,4-triazol-3-ylthio)-3-(2-(methylthio)acetamido)-3,4-dihydro-2H-benzo[e][1,2]oxaborinine-8-carboxylic acid]	< 8.00	Y (MIC of 1 μg/mL to 10 μg/mL)	Y (MIC of 1 μg/mL to 10 μg/mL)	Y (MIC of 1 μg/mL to 10 μg/mL)	Z (MIC of greater than 10 μg/mL)	Y (key: X: MIC of less than 1 ng/mL; Y: MIC of 1 μg/mL to 10 μg/mL; Z: MIC of greater than 10 μg/mL)	< 8.00	Y (key: X: MIC of less than 1 ng/mL; Y: MIC of 1 μg/mL to 10 μg/mL; Z: MIC of greater than 10 μg/mL)	X (MIC of less than 1 μg/mL)	Y (MIC of 1 μg/mL to 10 μg/mL)	> 9.00	Y (MIC of 1 μg/mL to 10 μg/mL)	X (key: X: MIC of less than 1 μg/mL; Y: MIC of 1 μg/mL to 10 μg/mL; Z: MIC of greater than 10 μg/mL)	Y (MIC of 1 μg/mL to 10 μg/mL)	> 9.00	< 8.00	> 9.00	X (key: X: MIC of less than 1 μg/mL; Y: MIC of 1 μg/mL to 10 μg/mL; Z: MIC of greater than 10 μg/mL)	Y (key: X: MIC of less than 1 ng/mL; Y: MIC of 1 μg/mL to 10 μg/mL; Z: MIC of greater than 10 μg/mL)	Y (MIC of 1 μg/mL to 10 μg/mL)	AZT MPC4 CTX-M-14 KP1005 (KP1005 (CTX-M-14) [12]): Y (MIC of 1 μg/mL to 10 μg/mL)

— patent publication US9963467B2, “Boronic acid derivatives and therapeutic uses thereof” (Rempex Pharmaceuticals, Inc., priority 2014, dated 2018)
